Test results reported in PubChem BioAssay (NCI).
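GI50: concentration for 50% inhibition of growth. At the TGI there is no net growth.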

Key:
Assay in all cases: NCI tumour cell line growth inhibition, 384-well format
SNB-19 CNS = tested on: SNB-19 CNS
SF-539 CNS = tested on: SF-539 CNS
OVCAR-5 ovarian = tested on: OVCAR-5 ovarian
SK-MEL-2 melanoma = tested on: SK-MEL-2 melanoma
K-562 leukemia = tested on: K-562 leukemia
MALME-3M melanoma = tested on: MALME-3M melanoma
HCC-2998 colon = tested on: HCC-2998 colon
NCI-H460 NSCLC = tested on: NCI-H460 NSCLC
A498 renal = tested on: A498 renal
SK-OV-3 ovarian = tested on: SK-OV-3 ovarian
EKVX NSCLC = tested on: EKVX NSCLC
ACHN renal = tested on: ACHN renal
U251 glioblastoma = tested on: U251 glioblastoma

SMILES: Cc1cc2c(C(C)C)c(O)c(O)c(C=O)c2c(O)c1-c1c(C)cc2c(C(C)C)c(O)c(O)c(C=O)c2c1O (tested in a mixture with another compound)
- GI50 (SNB-19 CNS): 1.25 µM
- TGI (SNB-19 CNS): 2.92 µM
- GI50 (SF-539 CNS): 1.72 µM
- TGI (SF-539 CNS): 3.18 µM
- GI50 (OVCAR-5 ovarian): 2.29 µM
- TGI (OVCAR-5 ovarian): 4.57 µM
- GI50 (SK-MEL-2 melanoma): 1.97 µM
- TGI (SK-MEL-2 melanoma): 3.61 µM
- GI50 (K-562 leukemia): 1.4 µM
- TGI (K-562 leukemia): 2.87 µM
- GI50 (MALME-3M melanoma): 1.7 µM
- TGI (MALME-3M melanoma): 3.47 µM
- GI50 (HCC-2998 colon): 2.32 µM
- TGI (HCC-2998 colon): 4.7 µM
- GI50 (NCI-H460 NSCLC): 1.9 µM
- TGI (NCI-H460 NSCLC): 3.4 µM
- GI50 (A498 renal): 2.41 µM
- TGI (A498 renal): 9.87 µM
- GI50 (SK-OV-3 ovarian): 2.58 µM
- TGI (SK-OV-3 ovarian): 6.67 µM
- GI50 (EKVX NSCLC): 1.85 µM
- TGI (EKVX NSCLC): 3.97 µM
- GI50 (ACHN renal): 2.05 µM
- TGI (ACHN renal): 4.66 µM
- GI50 (U251 glioblastoma): 1.59 µM
- TGI (U251 glioblastoma): 3.02 µM
